Consider one compound from article PMC8986850, “Development and exploration of novel substituted thiosemicarbazones as inhibitors of aldose reductase via in vitro analysis and computational study” (Scientific Reports, 2022).

In one data set the target is T1, human AKR1B1 (hAKR1B1) (Homo sapiens, UniProt P15121).
T1 construct: made in house; host or cells: E. coli BL21 (DE3)
Put plainly: Inhibition of expressed human AKR1B1 (E. coli BL21 (DE3)). Format: biochemical. As to conditions: human AKR1B1 expressed in E. coli BL21 (DE3), mean ± SEM of three measurements. As to the method:
For the enzyme inhibition assay, ALR2 and ALR1 were extracted from bovine sources (ALR2 from eyes and ALR1 from kidneys). Moreover, inhibitions studies were also carried out on the expressed ALR2 (human AKR1B1) and inhibition data for ALR2- bovine source and expressed enzyme was compared and analyzed. The protocols for enzyme extraction and expression in the bacterial system are included in the section of “Supporting information”. […] For the purpose of comparison and validation of enzyme inhibition data, these compounds were tested against human AKR1B1 (hAKR1B1) expressed in E. coli BL21 (DE3).
For the determination of enzyme activity of ALR1 and ALR2, 100 µL of reaction mixture was composed of 20 µL of buffer (100 mM sodium phosphate, pH 6.2), 30 µL of enzyme extract, 20 µL of substrate (10 mM), 20 µL of cofactor (0.1 mM of NADPH) and 10 µL of test compound (1 mM)[6],[21]. […] Similar protocols were followed for ALR1 and ALR2, however the substrate was different for each enzyme, with sodium-D-glucoronate and DL-glyceraldehyde used as the substrates for the ALR1 and ALR2 assays, respectively. […] In addition, similar protocols were adopted for human AKR1B1 that was expressed in E. coli BL21 (DE3), though the determined protein concentration was 12 µg/mL for the expressed enzyme. Detailed protocols for the preparation of ALR1, ALR2 and expressed human AKR1B1 can be found in the supporting information.
(§1) The newly synthesized N-substitute thiosemicarbazones (3a-o) were dissolved in 100% DMSO and diluted with deionized water, keeping the DMSO concentration equal to 0.1% in the assay.
The expression plasmid for aldose reductase (pDONR223_AKR1B1_WT) was gift from Addgene in stable culture. Streaking of this culture has been carried out on LB Agar plate then incubated overnight, after growth of colonies , inoculation was performed in LB medium then incubated this medium in shaking incubator at 37 °C. After 48 hours turbidity was measured when OD=0.6 then some of bacterial growth was prepared as 50% glycerol stock. Others are subjected to plasmid isolation following method Miniprep. Meanwhile E. Coli BL21 De3 cells were made competent then transformation with extracted plasmid (AKR1B1) had been carried out heat shock method. Transformed cell ( E.Coli BL21 DE3+AKR1B1) were grown in 37 °C in shaking incubator for 48 hr. The selection for transformed cells was carried out with the help of antibiotic (spectinomycin 50µg/ml). […] For the expression of aldose reductase , E.coli BL21DE3 were induced with of IPTG(Isopropyl-d-thiogalactopyranoside)[3]. […] The expressed enzyme was stabilized by addition 10 mM Tris–HCl buffer, 0.5 mM EDTA, 5 mM β-marcaptoethanol at pH 8.0 and 20% (v/v) glycerol. Cells were lysed with lysis buffer and then precipitation with ammonium sulfate up to 80% saturation was done . the expressed enzyme was dialyzed overnight against tris buffer. Protein quantification was performed following Bradford protein assay. Aliqoutes were stored at -80 refrigerator.

The next data set has as its target T2, ALR1 (Bos taurus, UniProt Q3ZCJ2).
T2 construct: The calf’s kidneys were obtained after slaughtering and dissection; from tissue; host or cells: calf kidneys
Put plainly: ALR1 enzyme inhibition assay (enzyme extracted from calf kidneys). As to conditions: bovine kidney ALR1, 100 µM inhibitor; read-out: I (%, 100 µM) (ALR1). The class given is biochemical, bovine. As to the method:
Compounds 3a-o were tested against ALR2 to evaluate their inhibitory potential against aldose reductase whereas selectivity was determined via performing ALR1 inhibition assay. For the enzyme inhibition assay, ALR2 and ALR1 were extracted from bovine sources (ALR2 from eyes and ALR1 from kidneys). Moreover, inhibitions studies were also carried out on the expressed ALR2 (human AKR1B1) and inhibition data for ALR2- bovine source and expressed enzyme was compared and analyzed. The protocols for enzyme extraction and expression in the bacterial system are included in the section of “Supporting information”. […] For the purpose of comparison and validation of enzyme inhibition data, these compounds were tested against human AKR1B1 (hAKR1B1) expressed in E. coli BL21 (DE3). We found a similar pattern of enzyme inhibition for the synthesized compounds against extracted enzyme (ALR2) as well as expressed enzyme (hAKR1B1).
For the determination of enzyme activity of ALR1 and ALR2, 100 µL of reaction mixture was composed of 20 µL of buffer (100 mM sodium phosphate, pH 6.2), 30 µL of enzyme extract, 20 µL of substrate (10 mM), 20 µL of cofactor (0.1 mM of NADPH) and 10 µL of test compound (1 mM)[6],[21]. The reaction mixture without cofactor was incubated at 32°C for 10 min, then the enzymatic reaction was initiated with the addition of NADPH and monitored for 5 minutes. Similar protocols were followed for ALR1 and ALR2, however the substrate was different for each enzyme, with sodium-D-glucoronate and DL-glyceraldehyde used as the substrates for the ALR1 and ALR2 assays, respectively. […] In addition, similar protocols were adopted for human AKR1B1 that was expressed in E. coli BL21 (DE3), though the determined protein concentration was 12 µg/mL for the expressed enzyme. Detailed protocols for the preparation of ALR1, ALR2 and expressed human AKR1B1 can be found in the supporting information.
as §1
The calf’s kidneys were obtained after slaughtering and dissection, dissolved in 3 volumes of sodium phosphate buffer (10mM) which is composed of 2.0 mM EDTA, 2.5mM β-mercaptoethanol, 0.25M solution of sucrose at pH 7.25. First, the homogenisation was carried out then centrifugation of the homogenate was performed at 12000 x g at 0-2^◦C for 30 minutes. The precipitates containing insoluble lipids were discarded and the collected supernatant layer was treated with 40% saturation of ammonium sulphate. This liquid mixture was subjected to centrifugation at 11000 x g at 0-2^◦C for 30 minutes. Now, precipitates were again discarded and supernatant was collected and treated with 50% ammonium sulphate and procedure was repeated in the same manner as in previous step. In the last step, the saturation of ammonium sulphate was increased up to 75% and supernatant was subjected to same parameter of centrifugation. At this final step, precipitates were obtained and supernatant layer was discarded. The obtained material of precipitates was composed of ALR1and redissolved in initial buffer that was used during homogenisation. Finally, material was dialyzed overnight with same buffer system. The dialyzed fractions containing ALR1 were stored at -80^◦C for further use[5].

T2 sequence (Q3ZCJ2 whole entry): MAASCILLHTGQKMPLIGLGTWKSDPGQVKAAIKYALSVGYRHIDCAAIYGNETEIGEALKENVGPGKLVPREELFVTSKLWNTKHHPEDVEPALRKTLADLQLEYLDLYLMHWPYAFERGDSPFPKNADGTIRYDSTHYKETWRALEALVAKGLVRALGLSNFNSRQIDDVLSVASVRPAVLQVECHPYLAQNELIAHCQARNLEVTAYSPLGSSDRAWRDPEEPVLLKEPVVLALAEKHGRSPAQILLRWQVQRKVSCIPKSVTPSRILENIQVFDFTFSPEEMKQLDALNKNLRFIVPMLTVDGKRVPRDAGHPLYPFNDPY

Consider `CC(C)(C)c1cc(C=NNC(=S)Nc2ccccc2F)c(O)c(C(C)(C)C)c1` [Compound 3m, 2-(3,5-di-tert-butyl-2-hydroxybenzylidene)-N-(2-fluorophenyl)hydrazine carbothioamide], for which the melting point lay in the range of 180 to 182 °C. Also, half-maximal inhibition against human AKR1B1 (hAKR1B1) (IC50) required 1.36 ± 0.004 µM. Besides, the inhibition at 100 µM on ALR1 was in the range of 4.27 to 26.2%.

A word on the IC50: it is the concentration that gives 50% inhibition. The term melting point denotes the temperature, or range, at which the solid turns liquid.
